In one series the target is cytochrome P450 2C8 (Homo sapiens (Human), UniProt P10632). In words: Cytochrome P450 2C8 inhibition. The series is classed as in vitro ADME. The note with it: human liver microsomes; for IC50: Amodiaquine deethylation, read-out: CYP2C8 IC50. A general note: Liver microsomes are a subcellular fraction often used to study metabolism.
A further series can be described thus: Aqueous solubility. Type of series: physicochemical. Particulars: McIlvaine buffer pH 6.8 with 2.5% DMSO, pH 6.8, aqueous buffer, kinetic from dmso stock, McIlvaine buffer pH 6.8, 2.5% DMSO, 24 h shaking. The procedure:
Assay for Determination of Aqueous Solubility […] After 24 h of shaking, the solutions or suspensions are filtered and analyzed by LC-UV. The amount dissolved in buffer is compared to the amount dissolved in the acetonitrile/water (1/1) solution.

Series [1] is described as follows: Metabolic stability with human liver microsomes. The series is classed as in vitro ADME. The note with it: human, microsomes; for half-life at 1 μM: pH 7.6.
Series [2] is described as follows: Drug transport across human Caco-2 cells. The note with it: human; for Papp A→B at 10 µM / Papp B→A at 10 µM: Caco-2, pH 7.2, Caco-2 monolayers, pH 7.2, 37° C.; for Papp A→B at 10 µM: apical-to-basal, read-out: PEAB; for Papp B→A at 10 µM: basal-to-apical, read-out: PEBA; for efflux ratio at 10 μM: Caco-2, pH 7.2, PEBA/PEAB, Caco-2. Type of series: in vitro ADME.

A further series has as its system Caco-2 cells. Kind of series: Drug transport across human Caco-2 cells. Type of series: in vitro ADME. The note with it: Caco-2, pH 7.2, 37° C.; compared to prior-art cyclic amide derivative.
A further series has as its target cytochrome P450 2C9 (Homo sapiens (Human), UniProt P11712). In words: Cytochrome P450 2C9 inhibition. Particulars: human liver microsomes; for IC50: Diclofenac hydroxylation, read-out: CYP2C9 IC50. The series is classed as in vitro ADME.
A further series relates to human hepatocytes. In words: Metabolic stability with human hepatocytes. Type of series: in vitro ADME. Particulars: for CL (predicted human hepatic in vivo blood clearance): human hepatocyte suspension, 1 μM test compound, scaled with well stirred model. The procedure: Assay for the Determination of Metabolic Stability with Human Hepatocytes The metabolic degradation of the test compound is assayed in a human hepatocyte suspension. Human hepatocytes (typically cryopreserved) are incubated in an appropriate buffer system (e.g. […] Samples are transferred into acetonitrile and pelleted by centrifugation (5 min) The supernatant is transferred to a new 96-deepwell plate, evaporated under nitrogen and resuspended. The decline of parent compound is analyzed by LC-MS/MS.

In a further series the target is cytochrome P450 2C19 (Homo sapiens (Human), UniProt P33261). Kind of series: Cytochrome P450 2C19 inhibition. The series is classed as in vitro ADME. The note with it: human liver microsomes; for IC50: (S)-Mephenytoin hydroxylation, read-out: CYP2C19 IC50.
The target of series [3] is neutrophil elastase in human plasma (Homo sapiens (Human), UniProt P08246). In words: Neutrophil elastase inhibitory activity in human plasma (zymosan-stimulated blood). Type of series: biochemical. Particulars: neutrophil elastase enriched human plasma from zymosan-stimulated blood; read-out: EC50.
Experimental: Assay for the Determination of Neutrophil Elastase Inhibitory Activity in Human Plasma
Citrated blood from human healthy donors is mixed with zymosan suspension and incubated at room temperature. This leads to the stimulation of neutrophils and the release of neutrophil elastase into the plasma. The stimulated blood is centrifuged to generate the neutrophil elastase enriched plasma.
Various concentrations of the neutrophil elastase inhibitor are incubated with plasma. […] A dose response curve is generated to calculate the EC50 of the inhibitor.
Series [4] deals with Human neutrophil elastase (Homo sapiens (Human), UniProt P08246). Kind of series: Human Neutrophil Elastase Assay. The series is classed as biochemical. The note with it: human neutrophil elastase, substrate MeOSuc-Ala-Ala-Pro-Val-AMC 250 μM, pH 7.5; read-out: IC50.
Where [5] appears, read: compared to example 8A disclosed in WO 2005/0828683.

Converted amounts (≈) assume the structure as drawn.

Sequence of cytochrome P450 2C19 (P33261 whole entry): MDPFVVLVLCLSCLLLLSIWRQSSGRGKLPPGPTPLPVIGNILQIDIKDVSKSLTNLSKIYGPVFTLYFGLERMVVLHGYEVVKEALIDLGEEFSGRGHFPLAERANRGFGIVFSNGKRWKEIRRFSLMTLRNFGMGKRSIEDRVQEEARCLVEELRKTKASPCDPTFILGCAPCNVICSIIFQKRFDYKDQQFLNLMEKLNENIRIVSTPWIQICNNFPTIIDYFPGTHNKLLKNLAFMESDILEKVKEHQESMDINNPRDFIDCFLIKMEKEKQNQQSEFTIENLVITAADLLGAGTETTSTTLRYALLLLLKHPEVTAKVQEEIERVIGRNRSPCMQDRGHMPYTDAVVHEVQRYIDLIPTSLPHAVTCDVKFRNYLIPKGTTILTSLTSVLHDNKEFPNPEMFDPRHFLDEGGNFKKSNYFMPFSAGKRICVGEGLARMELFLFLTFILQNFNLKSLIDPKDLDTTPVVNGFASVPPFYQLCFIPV
Sequence of cytochrome P450 2C8 (P10632 whole entry): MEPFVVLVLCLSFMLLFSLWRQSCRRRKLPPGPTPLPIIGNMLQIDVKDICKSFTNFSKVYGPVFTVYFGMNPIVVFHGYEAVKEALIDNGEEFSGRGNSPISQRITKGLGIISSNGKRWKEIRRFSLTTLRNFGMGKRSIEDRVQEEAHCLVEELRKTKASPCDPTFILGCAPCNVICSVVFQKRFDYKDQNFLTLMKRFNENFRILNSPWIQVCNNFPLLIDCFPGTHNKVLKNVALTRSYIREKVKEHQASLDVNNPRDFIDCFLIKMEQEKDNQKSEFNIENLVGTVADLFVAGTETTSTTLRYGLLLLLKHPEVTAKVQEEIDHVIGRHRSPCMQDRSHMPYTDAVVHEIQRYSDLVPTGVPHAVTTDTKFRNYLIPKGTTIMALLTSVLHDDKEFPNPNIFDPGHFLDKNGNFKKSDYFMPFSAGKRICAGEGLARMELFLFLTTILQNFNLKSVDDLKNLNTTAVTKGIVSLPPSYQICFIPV
Sequence of cytochrome P450 2C9 (P11712 whole entry): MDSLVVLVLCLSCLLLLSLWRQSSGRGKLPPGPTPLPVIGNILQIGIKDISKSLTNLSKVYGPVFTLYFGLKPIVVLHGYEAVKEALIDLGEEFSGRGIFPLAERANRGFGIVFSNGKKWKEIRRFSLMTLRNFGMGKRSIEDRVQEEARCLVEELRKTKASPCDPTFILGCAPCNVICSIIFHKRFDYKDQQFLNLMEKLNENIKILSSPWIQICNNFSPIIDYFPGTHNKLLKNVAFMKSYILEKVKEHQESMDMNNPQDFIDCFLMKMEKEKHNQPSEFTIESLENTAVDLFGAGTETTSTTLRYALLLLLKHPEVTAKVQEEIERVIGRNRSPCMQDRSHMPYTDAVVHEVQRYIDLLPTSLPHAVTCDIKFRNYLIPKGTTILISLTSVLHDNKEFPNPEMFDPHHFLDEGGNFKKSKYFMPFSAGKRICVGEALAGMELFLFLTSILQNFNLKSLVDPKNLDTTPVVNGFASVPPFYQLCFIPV
Sequence of neutrophil elastase in human plasma (P08246 30-247): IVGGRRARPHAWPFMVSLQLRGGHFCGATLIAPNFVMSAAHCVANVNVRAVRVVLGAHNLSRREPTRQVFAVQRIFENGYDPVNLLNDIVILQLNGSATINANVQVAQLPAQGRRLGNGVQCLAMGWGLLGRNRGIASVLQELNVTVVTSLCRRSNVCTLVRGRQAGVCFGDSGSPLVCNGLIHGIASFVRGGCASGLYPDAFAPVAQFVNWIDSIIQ
Sequence of Human neutrophil elastase (P08246 30-247): as above

`N#Cc1ccc([C@H]2NC(=O)N(c3cccc(C(F)(F)F)c3)C3=C2C(=O)CC3)cc1` [Example 1A, (R)-4-(2,5-Dioxo-1-(3-(trifluoromethyl)phenyl)-2,3,4,5,6,7-hexahydro-1H-cyclopenta[d]pyrimidin-4-yl)benzonitrile]: at cytochrome P450 2C8 (setting [5]), the CYP2C8 inhibition result is listed as “reduced CYP2C8 inhibition”. The solubility (commonly how much of the substance goes into solution per volume) at 24 h in the series “Aqueous solubility” amounted to 74 µg/mL (≈ 186 µM). Also, in series [1], the “half-life (t1/2 INVITRO), metabolic stability” value is “improved half life” and the half-life (in general, how long it takes for the measured level to halve) at 1 μM is above 2.17 h. Moreover, in [2], the Papp A→B at 10 µM came out at 51 ×10⁻⁶ cm/s and the Papp B→A at 10 µM worked out at 76.4 ×10⁻⁶ cm/s. In addition, the “AB permeability (PEAB)” value in the series on Caco-2 cells is listed as “improved AB permeability”. Also, the CYP2C9 inhibition entry on cytochrome P450 2C9 (setting [5]) is reported as “reduced CYP2C9 inhibition”. Further, in the series with human hepatocytes, the “CL (predicted human hepatic in vivo blood clearance)” value is 6 mL/min/kg. For the same molecule, the “predicted human hepatic in vivo blood clearance (CL)” value with human hepatocytes (human hepatocytes, compared to example 8A disclosed in WO 2005/0828683) is “reduced clearance”. The CYP2C19 inhibition result at cytochrome P450 2C19 (compared to example 8A in WO 2005/0828683) is “reduced CYP2C19 inhibition”.

As to `CS(=O)(=O)c1cc(C#N)ccc1[C@H]1NC(=O)N(c2cccc(C(F)(F)F)c2)C2=C1C(=O)CC2` [Example 10A, (S)-4-(2,5-Dioxo-1-(3-(trifluoromethyl)phenyl)-2,3,4,5,6,7-hexahydro-1H-cyclopenta[d]pyrimidin-4-yl)-3-(methylsulfonyl)benzonitrile], the IC50 (usually the concentration needed to halve the response being measured) was above 50 µM at cytochrome P450 2C8, above 50 µM on cytochrome P450 2C9, 0.0026 µM in series [4] and 39 µM at cytochrome P450 2C19. Further, the EC50 (in general, the midpoint of the concentration-response curve) in series [3] was 0.001 µM. The molecule also showed a solubility at 24 h in the series “Aqueous solubility” of 84.5 µg/mL (≈ 178 µM). In addition, the half-life at 1 μM in series [1] was above 2.17 h. Also, in series [2], the Papp A→B at 10 µM turned out to be 4.93 ×10⁻⁶ cm/s. For the same molecule, the Papp B→A at 10 µM in series [2] is 57.4 ×10⁻⁶ cm/s. Also, in series [2], the efflux ratio – broadly, a quotient of directional permeabilities that is used to spot active efflux – at 10 μM worked out at 14.5. In the series on Caco-2 cells, the “AB permeability (PEAB)” value is reported as “improved AB permeability”. The “CL (predicted human hepatic in vivo blood clearance)” value in the series on human hepatocytes was 0 mL/min/kg.

Regarding `CC(C)(O)CNC(=O)N1C(=O)N(c2cccc(C(F)(F)F)c2)C2=C(C(=O)CC2)[C@H]1c1ccc(C#N)cc1` [Example 41A, (R)-4-(4-Cyanophenyl)-N-(2-hydroxy-2-methylpropyl)-2,5-dioxo-1-(3-(trifluoro-methyl)phenyl)-4,5,6,7-tetrahydro-1H-cyclopenta[d]pyrimidine-3(2H)-carboxamide], the IC50 at cytochrome P450 2C8 is above 50 µM; on cytochrome P450 2C9, above 50 µM; in series [4] it was below 0.001 µM; on cytochrome P450 2C19 it was above 50 µM. In addition, the concentration giving a half-maximal response (EC50) in series [3] was below 0.001 µM. The same molecule displayed a solubility at 24 h in “Aqueous solubility” of 79 µg/mL (≈ 154 µM). The same molecule displayed a half-life at 1 μM in series [1] above 2.17 h. Further, the Papp A→B at 10 µM in [2] was found to be 11.1 ×10⁻⁶ cm/s. In series [2], the Papp B→A at 10 µM amounted to 75.1 ×10⁻⁶ cm/s. For the same molecule, the efflux ratio at 10 μM in series [2] was 6.8. Also, the “CL (predicted human hepatic in vivo blood clearance)” value in the series with human hepatocytes is 0 mL/min/kg.

In the case of `CNC(=O)N1C(=O)N(c2cccc(C(F)(F)F)c2)C2=C(C(=O)CC2)[C@H]1c1ccc(C#N)cc1S(C)(=O)=O` [Example 47.1], the IC50 at cytochrome P450 2C8 was above 50 µM; at cytochrome P450 2C9, above 50 µM; in series [4], below 0.001 µM; at cytochrome P450 2C19 it was above 50 µM. Also, the EC50 in series [3] was below 0.001 µM. Also, in “Aqueous solubility”, the solubility at 24 h is 83 µg/mL (≈ 156 µM). Besides, the half-life at 1 μM in series [1] is above 2.17 h. In addition, the Papp A→B at 10 µM in [2] was determined as 8.13 ×10⁻⁶ cm/s. The Papp B→A at 10 µM in series [2] turned out to be 65.1 ×10⁻⁶ cm/s. Also, the efflux ratio at 10 μM in [2] was determined as 8. For the same molecule, the “CL (predicted human hepatic in vivo blood clearance)” value with human hepatocytes was 0 mL/min/kg.

On to `CCNC(=O)N1C(=O)N(c2cccc(C(F)(F)F)c2)C2=C(C(=O)CC2)[C@H]1c1ccc(C#N)cc1S(C)(=O)=O` [Example 47.2], for which the IC50 was above 50 µM at cytochrome P450 2C8, above 50 µM on cytochrome P450 2C9, below 0.001 µM in [4] and above 50 µM at cytochrome P450 2C19. Besides, the EC50 in series [3] is below 0.001 µM. Further, in “Aqueous solubility”, the concentration in solution (solubility at 24 h) was 45 µg/mL (≈ 82.3 µM). The half-life at 1 μM in series [1] is above 2.17 h. The Papp A→B at 10 µM in series [2] is 12.8 ×10⁻⁶ cm/s. In addition, the Papp B→A at 10 µM in [2] came to 84.5 ×10⁻⁶ cm/s. In the series on human hepatocytes, the “CL (predicted human hepatic in vivo blood clearance)” value was 1 mL/min/kg.

Source of the values: US9290459B1, “Substituted bicyclic dihydropyrimidinones and their use as inhibitors of neutrophil elastase activity” (Boehringer Ingelheim International GmbH, priority 2013, dated 2016).
